From ChEMBL document CHEMBL1782032, “New aromatic substituted pyrazoles as selective inhibitors of human adipocyte fatty acid-binding protein” (Bioorg Med Chem Lett, 2011)
Active and inactive are the calls of the source. No cut-off for these calls is given here.

Experiments:
[1] = biological target: T1, Fatty acid-binding protein, adipocyte (Homo sapiens, UniProt P15090); test: Displacement of fluorescent 1-anilinonapthalene 8-sulfonic acid from human a-FABP by fluorescence spectrophotometry
Target sequence in this assay (P15090 whole entry): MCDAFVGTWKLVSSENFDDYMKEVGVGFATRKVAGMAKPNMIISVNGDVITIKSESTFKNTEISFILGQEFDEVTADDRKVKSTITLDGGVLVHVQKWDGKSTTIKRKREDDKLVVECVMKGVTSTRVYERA

[2] = biological target: T2, Fatty acid-binding protein, heart (Homo sapiens, UniProt P05413); test: Displacement of fluorescent 1-anilinonapthalene 8-sulfonic acid from human h-FABP by fluorescence spectrophotometry
Target sequence in this assay (P05413 whole entry): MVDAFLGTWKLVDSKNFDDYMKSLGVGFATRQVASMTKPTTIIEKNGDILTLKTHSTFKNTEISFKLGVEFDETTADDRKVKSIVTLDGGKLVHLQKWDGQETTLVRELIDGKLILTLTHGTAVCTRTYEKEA

RAW264.7 [3] = test: Antiinflammatory activity in […] RAW264.7 cells assessed as inhibition of lipopolysaccharide induced MCP-1/CCL2 mRNA expression by PCR; assay type: functional, cell-based
RAW264.7 [4] = test: Antiinflammatory activity in […] RAW264.7 cells assessed as inhibition of lipopolysaccharide induced TNF-alpha mRNA expression by PCR; assay type: functional, cell-based
[5] = biological target: T2, Fatty acid-binding protein, heart; test: Displacement of fluorescent 1-anilinonapthalene 8-sulfonic acid from human h-FABP at 10 uM by fluorescence spectrophotometry
Target sequence in this assay (P05413 2-133 limits assumed): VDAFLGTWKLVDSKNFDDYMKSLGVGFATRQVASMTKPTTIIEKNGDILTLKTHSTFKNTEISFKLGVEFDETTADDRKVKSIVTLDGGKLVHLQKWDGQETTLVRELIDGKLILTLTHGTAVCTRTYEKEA

[6] = biological target: T1, Fatty acid-binding protein, adipocyte; test: Displacement of fluorescent 1-anilinonapthalene 8-sulfonic acid from human a-FABP at 10 uM by fluorescence spectrophotometry
Target sequence in this assay (P15090 2-132 limits assumed): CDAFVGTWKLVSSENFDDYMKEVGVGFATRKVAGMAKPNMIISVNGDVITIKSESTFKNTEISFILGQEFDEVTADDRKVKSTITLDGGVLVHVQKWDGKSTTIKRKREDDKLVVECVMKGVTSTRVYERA

SMILES	Ki [1]	Ki [2]	inhibition (RAW264.7 [3])	inhibition (RAW264.7 [4])	Activity [5]	Activity [6]
O=C(O)COc1cccc(-c2ccccc2-c2cc(-c3ccccc3)n(-c3ccccc3)n2)c1	32 nM	5240 nM				
CC(Oc1cccc(-c2ccccc2-c2cc(-c3cccs3)n(-c3ccc(Cl)cc3)n2)c1)C(=O)O (configuration not stated)	< 1 nM	2270 nM	Dose-dependent effect	Dose-dependent effect		
CCc1c(-c2ccccc2)c(-c2ccccc2)nn1-c1ccccc1-c1cccc(OCC(=O)O)c1			Dose-dependent effect	Dose-dependent effect		
CCC(Oc1cccc(-c2ccccc2-c2cc(-c3cccs3)n(-c3ccc(Cl)cc3)n2)c1)C(=O)O (configuration not stated)	6 nM	3720 nM				
O=C(O)COc1cccc(-c2ccccc2-c2cc(-c3cccs3)n(-c3ccc(Cl)cc3)n2)c1	5 nM	4240 nM				
O=C(O)COc1cccc(-c2ccccc2-c2cc(-c3ccco3)n(-c3ccc(Cl)cc3)n2)c1	7 nM	4130 nM				
CCOC(=O)COc1cccc(-c2ccccc2-n2nc(-c3ccccc3)c(-c3ccccc3)c2CC)c1					inactive	inactive
O=C(O)COc1cccc(-c2ccccc2-c2cc(-c3ccccc3)n(-c3ccc(Cl)cc3)n2)c1	13 nM	17000 nM				
CC(C)(Oc1cccc(-c2ccccc2-c2cc(-c3cccs3)n(-c3ccc(Cl)cc3)n2)c1)C(=O)O	< 1 nM	> 50000 nM	Dose-dependent effect	Dose-dependent effect		
